Consider 6 molecules from patent US9249125B2, “Pyrazole derivatives as p38 MAP inhibitors” (RESPIVERT LIMITED, priority 2012, dated 2016).

Bounds are passed on as bounds.

For orientation: IC50 means the concentration that gives 50% inhibition.

Data set [1] concerns the target cSrc (Homo sapiens (Human), UniProt P12931). The experiment in a line: c-Src enzyme inhibition (FRET, Z-LYTE). Format: biochemical. The method in brief: (§1)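 Z-LYTE FRET kinase assay: enzyme (3000 or 2000 ng/mL stock, respectively) preincubated 2 h at RT with compound (4–0.004 μg/mL stocks), then FRET peptide plus ATP (800 μM stock for c-Src, 60 μM for Syk) added for 1 h. Protease development 1 h; phosphorylation from coumarin/fluorescein emission ratio.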

For data set [2], the target named is Syk (Homo sapiens (Human), UniProt P43405). The experiment in a line: Syk enzyme inhibition (FRET, Z-LYTE). Format: biochemical. The method in brief:
as §1

The target of data set [3] is GSK3α (Homo sapiens (Human), UniProt P49840). The experiment in a line: GSK 3α enzyme inhibition (FRET, Z-LYTE). It is filed as biochemical. The method in brief: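 GSK3α (500 ng/mL stock) was preincubated 2 hr at RT with compound (4 to 0.004 μg/mL stocks), then FRET peptide (8 μM stock) and ATP (40 μM stock) added for 1 hr. Protease development for 1 hr cleaved unphosphorylated peptide; coumarin/fluorescein emission ratio reported phosphorylation.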

For data set [4], the system named is LPS-induced TNFα release in d-U937 cells. Description: LPS-induced TNFα release in d-U937 cells. It is filed as cell-based. To be noted: Homo sapiens, dU937, relative to 10 μg/mL BIRB796, read-out: LPS Induced Release of Cytokine in d-937 Cells TNFα REC50. The gist of the method: (§2)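 PMA-differentiated (100 ng/mL, 48–72 hr) U937 cells pre-incubated with compound 2 hr, then stimulated with LPS (0.1 μg/mL, E. coli O111:B4) for 4 hr. Supernatant TNFα and IL-8 measured by sandwich ELISA; inhibition versus vehicle control, REC50 from concentration-response curve.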

For data set [5], the system named is d-U937 cells. Description: Cell viability: MTT assay. Format: cell-based, human. The note with it: 1 μg/mL. The gist of the method:
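Differentiated U937 cells were exposed to compound at 1 or 10 μg/mL either 4 h in 5% FCS RPMI1640 or 24 h in 10% FCS RPMI1640, then given MTT for 1 h, DMSO-solubilised and read at 550 nm. Percent viability loss versus 0.5% DMSO vehicle; apparent gains appear negative.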
In general terms: Tetrazolium assays rely on reduction of a dye to a coloured formazan, in cell work by metabolically active cells.

Data set [6] relates to Poly I:C-induced ICAM-1 expression in BEAS2B cells. The experiment in a line: Poly I:C-induced ICAM-1 expression in BEAS2B cells. It is filed as cell-based. To be noted: Homo sapiens, BEAS-2B, read-out: Poly IC induced ICAM1 in BEAS2B IC50. The method in brief: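 BEAS2B human bronchial epithelial cells pre-incubated with compound for 2 hr, then transfected with 1 μg/mL poly I:C plus Oligofectamine. At 18 hr, surface ICAM-1 measured by cell-based ELISA (HRP, OD450–655). Signal corrected for cell number by crystal violet OD595.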

For data set [7], the system named is LPS-induced IL-8 release in d-U937 cells. The experiment in a line: LPS-induced IL-8 release in d-U937 cells. To be noted: Homo sapiens, dU937, read-out: LPS Induced Release of Cytokine in d-937 Cells IL-8 IC50. Format: cell-based. The gist of the method: as §2
The target of data set [8] is p38 MAPKα (Homo sapiens (Human), UniProt Q16539). The experiment in a line: p38 MAPKα enzyme inhibition (FRET, Z-LYTE). It is filed as biochemical.
Sequence of p38 MAPKα (Q16539 whole entry): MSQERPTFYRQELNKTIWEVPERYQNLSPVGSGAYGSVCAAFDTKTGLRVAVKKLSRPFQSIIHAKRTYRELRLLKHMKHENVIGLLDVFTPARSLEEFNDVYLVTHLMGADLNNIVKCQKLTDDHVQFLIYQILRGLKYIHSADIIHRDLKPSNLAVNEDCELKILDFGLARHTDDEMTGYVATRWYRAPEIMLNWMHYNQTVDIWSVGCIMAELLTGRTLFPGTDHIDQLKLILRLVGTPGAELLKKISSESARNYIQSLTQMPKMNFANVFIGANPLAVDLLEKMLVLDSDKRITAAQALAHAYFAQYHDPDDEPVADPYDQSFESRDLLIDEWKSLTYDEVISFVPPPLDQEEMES

Sequence of cSrc (P12931 whole entry, looked up): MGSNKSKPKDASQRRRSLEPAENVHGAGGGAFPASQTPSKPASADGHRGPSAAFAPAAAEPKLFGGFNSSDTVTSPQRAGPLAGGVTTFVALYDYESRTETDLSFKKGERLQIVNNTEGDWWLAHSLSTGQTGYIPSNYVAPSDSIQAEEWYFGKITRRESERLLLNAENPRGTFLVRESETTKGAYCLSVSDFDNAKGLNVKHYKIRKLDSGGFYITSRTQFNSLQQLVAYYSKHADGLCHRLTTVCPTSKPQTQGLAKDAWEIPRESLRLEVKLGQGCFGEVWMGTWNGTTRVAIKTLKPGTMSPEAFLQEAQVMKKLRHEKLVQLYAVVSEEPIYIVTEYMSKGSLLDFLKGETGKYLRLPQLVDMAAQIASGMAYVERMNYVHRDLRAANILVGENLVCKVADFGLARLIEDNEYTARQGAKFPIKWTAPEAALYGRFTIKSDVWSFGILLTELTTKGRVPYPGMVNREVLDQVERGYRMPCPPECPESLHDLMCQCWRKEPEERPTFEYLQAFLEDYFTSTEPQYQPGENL
Sequence of GSK3α (P49840 whole entry): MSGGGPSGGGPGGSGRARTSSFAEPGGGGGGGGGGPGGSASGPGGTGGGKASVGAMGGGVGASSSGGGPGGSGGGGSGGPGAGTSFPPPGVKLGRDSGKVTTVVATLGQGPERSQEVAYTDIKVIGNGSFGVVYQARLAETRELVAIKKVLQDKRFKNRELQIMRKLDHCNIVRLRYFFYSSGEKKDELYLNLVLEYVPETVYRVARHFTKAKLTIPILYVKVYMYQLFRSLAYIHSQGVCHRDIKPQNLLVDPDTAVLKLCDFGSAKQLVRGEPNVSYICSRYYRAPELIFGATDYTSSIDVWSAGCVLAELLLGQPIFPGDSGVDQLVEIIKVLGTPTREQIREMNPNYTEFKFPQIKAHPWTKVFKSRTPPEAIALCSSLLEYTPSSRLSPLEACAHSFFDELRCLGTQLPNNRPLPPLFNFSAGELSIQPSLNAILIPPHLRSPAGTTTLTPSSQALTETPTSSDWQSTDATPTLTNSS

Consider `Cc1cc2cc(Nc3nccc(Oc4ccc(NC(=O)Nc5cc(C(C)(C)C)nn5-c5ccc(OCCN6CCOCC6)cc5)c5ccccc45)n3)ccc2[nH]1` [Example 66, 1-(3-(tert-butyl)-1-(4-(2-morpholinoethoxy)phenyl)-1H-pyrazol-5-yl)-3-(4-((2-((2-methyl-1H-indol-5-yl)amino)pyrimidin-4-yl)oxy)naphthalen-1-yl)urea], for which the IC50 in data set [1] is 15 nM; in data set [2] it was 19 nM; in data set [3], 2850 nM; in data set [6] it was 6.9 nM; in data set [7] it was 16 nM; in data set [8], 335 nM. For the same molecule, the EC50 in data set [4] was 6.4 nM. In addition, the “MTT Assay Cell viability at time point in d-U937 cells 4 h” value in data set [5] is “−ve (−ve and +ve indicate that the value is below and above respectively, the no significant effect threshold, defined as 30% inhibition at 1 μg/mL at the time point indicated.)”. Moreover, in data set [5], the “MTT Assay Cell viability at time point in d-U937 cells 24 h” value was “−ve (−ve and +ve indicate that the value is below and above respectively, the no significant effect threshold, defined as 30% inhibition at 1 μg/mL at the time point indicated.)”.

For `Cc1ccc(-n2nc(C(C)(C)C)cc2NC(=O)Nc2ccc(Oc3ccnc(Nc4ccc5c(cnn5C)c4)n3)c3ccccc23)cc1` [Example 26, 1-(3-(tert-butyl)-1-(p-tolyl)-1H-pyrazol-5-yl)-3-(4-((2-((1-methyl-1H-indazol-5-yl)amino)pyrimidin-4-yl)oxy)naphthalen-1-yl)urea], the half-inhibitory concentration (IC50) was 12 nM in data set [1]; 180 nM in data set [2]; above 15700 nM in data set [3]; 2.3 nM in data set [6]; 2.2 nM in data set [7]; 145 nM in data set [8]. The EC50 in data set [4] amounted to 2.2 nM. In data set [5], the “MTT Assay Cell viability at time point in d-U937 cells 4 h” value is “−ve (−ve and +ve indicate that the value is below and above respectively, the no significant effect threshold, defined as 30% inhibition at 1 μg/mL at the time point indicated.)”. In addition, the “MTT Assay Cell viability at time point in d-U937 cells 24 h” value in data set [5] is “−ve (−ve and +ve indicate that the value is below and above respectively, the no significant effect threshold, defined as 30% inhibition at 1 μg/mL at the time point indicated.)”.

Consider `CC(C)(C)c1cc(NC(=O)Nc2ccc(Oc3cc(Nc4ccc5[nH]ncc5c4)ncn3)c3ccccc23)n(-c2ccc(=O)n(CCO)c2)n1` [Example 14, 1-(4-((6-((1H-Indazol-5-yl)amino)pyrimidin-4-yl)oxy)naphthalen-1-yl)-3-(3-(tert-butyl)-1-(1-(2-hydroxyethyl)-6-oxo-1,6-dihydropyridin-3-yl)-1H-pyrazol-5-yl)urea], for which the concentration for half-maximal inhibition (IC50) in data set [1] is 2 nM; in data set [2], 7 nM; in data set [3], 1090 nM; in data set [6], 52.4 nM; in data set [7], 18.4 nM; in data set [8], 3 nM. Also, in data set [4], the EC50 came out at 7.5 nM. The “MTT Assay Cell viability at time point in d-U937 cells 4 h” value in data set [5] was “−ve (−ve and +ve indicate that the value is below and above respectively, the no significant effect threshold, defined as 30% inhibition at 1 μg/mL at the time point indicated.)”. The “MTT Assay Cell viability at time point in d-U937 cells 24 h” value in data set [5] was “−ve (−ve and +ve indicate that the value is below and above respectively, the no significant effect threshold, defined as 30% inhibition at 1 μg/mL at the time point indicated.)”.

Regarding `CC(C)(C)c1cc(NC(=O)Nc2ccc(Oc3ccnc(Nc4ccc5c(c4)NC(=O)C5)n3)c3ccccc23)n(-c2cccc(OCCN3CCOCC3)c2)n1` [Example 50, 1-(3-(tert-butyl)-1-(3-(2-morpholinoethoxy)phenyl)-1H-pyrazol-5-yl)-3-(4-((2-((2-oxoindolin-6-yl)amino)pyrimidin-4-yl)oxy)naphthalen-1-yl)urea], the half-inhibitory concentration (IC50) in data set [1] was below 1 nM; in data set [2], 2 nM; in data set [3], 1170 nM; in data set [6], 2.7 nM; in data set [7] it was 34 nM; in data set [8], 31 nM. For the same molecule, the EC50 in data set [4] amounted to 16.4 nM. Also, the “MTT Assay Cell viability at time point in d-U937 cells 4 h” value in data set [5] was “−ve (−ve and +ve indicate that the value is below and above respectively, the no significant effect threshold, defined as 30% inhibition at 1 μg/mL at the time point indicated.)”. In addition, the “MTT Assay Cell viability at time point in d-U937 cells 24 h” value in data set [5] is “−ve (−ve and +ve indicate that the value is below and above respectively, the no significant effect threshold, defined as 30% inhibition at 1 μg/mL at the time point indicated.)”.

Regarding `CC(C)(C)c1cc(NC(=O)Nc2ccc(Oc3ccnc(Nc4ccc5c(cnn5CCN5CCOCC5)c4)n3)c3ccccc23)n(-c2ccc(OCCN3CCOCC3)cc2)n1` [Example 74, 1-(3-(tert-butyl)-1-(4-(2-morpholinoethoxy)phenyl)-1H-pyrazol-5-yl)-3-(4-((2-((1-(2-morpholinoethyl)-1H-indazol-5-yl)amino)pyrimidin-4-yl)oxy)naphthalen-1-yl)urea], the half-maximal inhibitory concentration (IC50) is below 1 nM in data set [1]; 1 nM in data set [2]; 597 nM in data set [3]; 2.7 nM in data set [6]; 192 nM in data set [7]; 27 nM in data set [8]. In data set [4], the EC50 was 3.6 nM. In addition, the “MTT Assay Cell viability at time point in d-U937 cells 4 h” value in data set [5] was “−ve (−ve and +ve indicate that the value is below and above respectively, the no significant effect threshold, defined as 30% inhibition at 1 μg/mL at the time point indicated.)”. In data set [5], the “MTT Assay Cell viability at time point in d-U937 cells 24 h” value was “−ve (−ve and +ve indicate that the value is below and above respectively, the no significant effect threshold, defined as 30% inhibition at 1 μg/mL at the time point indicated.)”.

For `COc1ccc(-n2nc(C(C)(C)C)cc2NC(=O)Nc2ccc(Oc3ccnc(Nc4ccc5[nH]nc(OCCN6CCOCC6)c5c4)n3)c3ccccc23)cc1` [Example 45, 1-(3-(tert-butyl)-1-(4-methoxyphenyl)-1H-pyrazol-5-yl)-3-(4-((2-((3-(2-morpholinoethoxy)-1H-indazol-5-yl)amino)pyrimidin-4-yl)oxy)naphthalen-1-yl)urea], the 50% inhibitory concentration (IC50) turned out to be 5 nM in data set [1]; 3 nM in data set [2]; 407 nM in data set [3]; 1.2 nM in data set [6]; 1.6 nM in data set [7]; 17 nM in data set [8]. In data set [4], the EC50 came out at 0.9 nM. In addition, in data set [5], the “MTT Assay Cell viability at time point in d-U937 cells 4 h” value is “−ve (−ve and +ve indicate that the value is below and above respectively, the no significant effect threshold, defined as 30% inhibition at 1 μg/mL at the time point indicated.)”. Besides, the “MTT Assay Cell viability at time point in d-U937 cells 24 h” value in data set [5] was “−ve (−ve and +ve indicate that the value is below and above respectively, the no significant effect threshold, defined as 30% inhibition at 1 μg/mL at the time point indicated.)”.
